The target in this assay is T1, CDK9/CycT1 (Homo sapiens, UniProt P50750).
T1 construct: purchased SignalChem
Nature of the assay: ADP-Glo Kinase Assay. It is filed as biochemical. The following applies: Table 1; assay not given. The method, then:
ADP-Glo assay kit is purchased from Promega and the CDK9/CycT1 protein and PDKtide substrate are purchased from SignalChem. Compounds of Structure (I) are dosed in 10-dose IC50 mode in duplicate with 3-fold serial dilution starting at 100 μM. The reaction is started by pre-incubating 4 μL of protein (20 nM), 2 μL of substrate (100 μM), and 2 μL of serial diluted drug in 1× assay buffer (50 mM HEPES, 3 mM MgCl2, 3 mM MnCl2, and 1 mM DTT) for 30 minutes. After pre-incubating, 4 μL of ATP (1 μM) is added to each well and incubated for an additional 90 minutes. The ADP-Glo Reagent (10 μL) and Kinase Detection Reagent (20 μL) are added to each well and incubated as recommended by Promega. The reaction is quantified by measuring luminescence and the IC50 is calculated using GraphPad Prism software.
For orientation: ADP-Glo turns the ADP formed in a reaction into a luminescent signal.

SMILES strings stand for the structures.

As usually defined, the IC50 is the midpoint of a concentration-inhibition curve. The low end stands for greater potency in that assay, the high end for weaker potency in that assay.

T1 sequence (P50750 whole entry): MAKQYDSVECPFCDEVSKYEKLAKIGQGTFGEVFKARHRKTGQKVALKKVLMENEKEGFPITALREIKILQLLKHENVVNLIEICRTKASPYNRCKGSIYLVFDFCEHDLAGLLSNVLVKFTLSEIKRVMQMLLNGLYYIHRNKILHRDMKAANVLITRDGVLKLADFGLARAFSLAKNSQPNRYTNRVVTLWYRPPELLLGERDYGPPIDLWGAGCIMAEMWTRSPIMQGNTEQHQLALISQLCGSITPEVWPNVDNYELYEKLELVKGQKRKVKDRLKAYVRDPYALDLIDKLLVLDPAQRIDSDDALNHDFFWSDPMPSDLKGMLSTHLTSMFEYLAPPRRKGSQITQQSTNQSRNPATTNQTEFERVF
T1 sequence (O60563 whole entry partner): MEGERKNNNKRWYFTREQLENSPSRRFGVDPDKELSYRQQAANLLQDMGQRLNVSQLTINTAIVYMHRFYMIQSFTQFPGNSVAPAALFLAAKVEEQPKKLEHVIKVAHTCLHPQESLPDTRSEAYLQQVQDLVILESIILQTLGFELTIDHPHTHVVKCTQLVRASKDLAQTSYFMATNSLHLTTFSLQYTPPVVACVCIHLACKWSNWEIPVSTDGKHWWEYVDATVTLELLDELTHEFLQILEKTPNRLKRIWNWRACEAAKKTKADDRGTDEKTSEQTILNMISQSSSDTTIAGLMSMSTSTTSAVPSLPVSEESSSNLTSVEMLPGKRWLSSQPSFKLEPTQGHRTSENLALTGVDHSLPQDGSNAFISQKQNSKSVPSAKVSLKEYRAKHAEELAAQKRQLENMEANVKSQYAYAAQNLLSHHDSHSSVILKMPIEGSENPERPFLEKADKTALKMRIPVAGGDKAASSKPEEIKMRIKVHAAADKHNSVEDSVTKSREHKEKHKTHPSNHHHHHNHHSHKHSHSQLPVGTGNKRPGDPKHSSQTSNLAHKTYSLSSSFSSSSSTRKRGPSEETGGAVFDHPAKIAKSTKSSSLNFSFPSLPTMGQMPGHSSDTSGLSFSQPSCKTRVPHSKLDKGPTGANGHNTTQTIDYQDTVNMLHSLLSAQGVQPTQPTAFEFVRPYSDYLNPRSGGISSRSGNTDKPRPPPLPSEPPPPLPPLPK

As to `CC(C)c1c2cc(-c3ccnc(N[C@H]4CC[C@H](NCCCCCc5cccc6c5CN(C5CCC(=O)NC5=O)C6=O)C4)n3)ccc2nn1C` (stereo partly drawn) [Compound I-1, 3-(4-(5-(((1S,3S)-3-((4-(3-isopropyl-2-methyl-2H-indazol-5-yl)pyrimidin-2-yl)amino)cyclopentyl)amino)pentyl)-1-oxoisoindolin-2-yl)piperidine-2,6-dione], the IC50 was in the range of 5 to 1000 nM.

Consider `CC(C)c1c2cc(-c3ccnc(N[C@H]4CC[C@H](NCCCCCc5cccc6c5C(=O)N(C5CCC(=O)NC5=O)C6=O)C4)n3)ccc2nn1C` (stereo partly drawn) [Compound I-2, 2-(2,6-dioxopiperidin-3-yl)-4-(5-(((1S,3S)-3-((4-(3-isopropyl-2-methyl-2H-indazol-5-yl)pyrimidin-2-yl)amino)cyclopentyl)amino)pentyl)isoindoline-1,3-dione], for which the IC50 lay in the range of 5 to 1000 nM.

For `CC(C)c1c2cc(-c3ccnc(N[C@H]4CC[C@H](NC(=O)N5CCN(CCCCCc6cccc7c6C(=O)N(C6CCC(=O)NC6=O)C7=O)CC5)C4)n3)ccc2nn1C` (stereo partly drawn) [Compound I-3, 4-(5-(2-(2,6-dioxopiperidin-3-yl)-1,3-dioxoisoindolin-4-yl)pentyl)-N-((1S,3S)-3-((4-(3-isopropyl-2-methyl-2H-indazol-5-yl)pyrimidin-2-yl)amino)cyclopentyl)piperazine-1-carboxamide], the concentration for half-maximal inhibition (IC50) was ≤ 5 nM.

For the compound `CC(C)c1c2cc(-c3ccnc(N[C@H]4CC[C@H](NC(=O)N5CCN(CCCCCc6cccc7c6CN(C6CCC(=O)NC6=O)C7=O)CC5)C4)n3)ccc2nn1C` (stereo partly drawn) [Compound I-4, 4-(5-(2-(2,6-dioxopiperidin-3-yl)-1-oxoisoindolin-4-yl)pentyl)-N-((1S,3S)-3-((4-(3-isopropyl-2-methyl-2H-indazol-5-yl)pyrimidin-2-yl)amino)cyclopentyl)piperazine-1-carboxamide], the half-inhibitory concentration (IC50) was ≤ 5 nM.

Consider `CC(C)c1c2cc(-c3ccnc(N[C@H]4CC[C@H](NC(=O)N5CCN(CCCCCc6ccc7c(c6)C(=O)N(C6CCC(=O)NC6=O)C7=O)CC5)C4)n3)cc(F)c2nn1C` (stereo partly drawn) [Compound I-5, 4-(5-(2-(2,6-dioxopiperidin-3-yl)-1,3-dioxoisoindolin-5-yl)pentyl)-N-((1S,3S)-3-((4-(7-fluoro-3-isopropyl-2-methyl-2H-indazol-5-yl)pyrimidin-2-yl)amino)cyclopentyl)piperazine-1-carboxamide], for which the IC50 is ≤ 5 nM.

As to `CC(C)c1c2cc(-c3ccnc(N[C@H]4CC[C@H](NC(=O)N5CCN(CCCCCc6ccc7c(c6)CN(C6CCC(=O)NC6=O)C7=O)CC5)C4)n3)cc(F)c2nn1C` (stereo partly drawn) [Compound I-6, 4-(5-(2-(2,6-dioxopiperidin-3-yl)-1-oxoisoindolin-5-yl)pentyl)-N-((1S,3S)-3-((4-(7-fluoro-3-isopropyl-2-methyl-2H-indazol-5-yl)pyrimidin-2-yl)amino)cyclopentyl)piperazine-1-carboxamide], the IC50 is ≤ 5 nM.

`CC(C)c1c2cc(-c3ccnc(N[C@H]4CC[C@H](NCc5cccc6c5C(=O)N(C5CCC(=O)NC5=O)C6=O)C4)n3)ccc2nn1C` (stereo partly drawn) [Compound I-7, 2-(2,6-dioxopiperidin-3-yl)-4-((((1S,3S)-3-((4-(3-isopropyl-2-methyl-2H-indazol-5-yl)pyrimidin-2-yl)amino)cyclopentyl)amino)methyl)isoindoline-1,3-dione] gave an IC50 of 5 to 1000 nM.

As for `CC(C)c1c2cc(-c3ccnc(N[C@H]4CC[C@H](NCc5cccc6c5CN(C5CCC(=O)NC5=O)C6=O)C4)n3)ccc2nn1C` (stereo partly drawn) [Compound I-8, 3-(4-((((1S,3S)-3-((4-(3-isopropyl-2-methyl-2H-indazol-5-yl)pyrimidin-2-yl)amino)cyclopentyl)amino)methyl)-1-oxoisoindolin-2-yl)piperidine-2,6-dione], the IC50 is ≤ 5 nM.

In turn, `CC(C)c1c2cc(-c3ccnc(N[C@H]4CC[C@H](NCc5cccc6c5C(=O)N(C5CCC(=O)NC5=O)C6=O)C4)n3)cc(F)c2nn1C` (stereo partly drawn) [Compound I-9, 2-(2,6-dioxopiperidin-3-yl)-4-((((1S,3S)-3-((4-(7-fluoro-3-isopropyl-2-methyl-2H-indazol-5-yl)pyrimidin-2-yl)amino)cyclopentyl)amino)methyl)isoindoline-1,3-dione] gave an IC50 of 5 to 1000 nM.

Turning to `CC(C)c1c2cc(-c3ccnc(N[C@H]4CC[C@H](NCc5cccc6c5CN(C5CCC(=O)NC5=O)C6=O)C4)n3)cc(F)c2nn1C` (stereo partly drawn) [Compound I-10, 3-(4-((((1S,3S)-3-((4-(7-fluoro-3-isopropyl-2-methyl-2H-indazol-5-yl)pyrimidin-2-yl)amino)cyclopentyl)amino)methyl)-1-oxoisoindolin-2-yl)piperidine-2,6-dione], the IC50 was ≤ 5 nM.

Consider `CC(C)c1c2cc(-c3ccnc(N[C@H]4CC[C@H](NCc5ccc(-c6ccccn6)cc5)C4)n3)ccc2nn1C` [Compound I-11, (1S,3S)-N^1-(4-(3-isopropyl-2-methyl-2H-indazol-5-yl)pyrimidin-2-yl)-N^3-(4-(pyridin-2-yl)benzyl)cyclopentane-1,3-diamine], for which the IC50 lay within 5 to 1000 nM.

In the case of `CC(C)c1c2cc(-c3ccnc(N[C@H]4CC[C@H](NCc5ccc(-c6ccccn6)cc5)C4)n3)cc(F)c2nn1C` [Compound I-12, (1S,3S)-N^1-(4-(7-fluoro-3-isopropyl-2-methyl-2H-indazol-5-yl)pyrimidin-2-yl)-N^3-(4-(pyridin-2-yl)benzyl)cyclopentane-1,3-diamine], the IC50 is 5 to 1000 nM.

For the origin of these results see US20250114357A1, “BIFUNCTIONAL PROTAC AND MOLECULAR GLUE COMPOUNDS AND METHODS OF USE THEREOF” (Biolexis Therapeutics, Inc., priority 2023, published 2025).
